Results reported in US8202910B2 (Sequella, Inc., priority 2006, dated 2012).
In brackets after ≈: the same amount, converted by molar mass. Where two headings read alike, the source gives them in different places.

Assays:
[1] = system: RIF^R M. tuberculosis strain 3185; type: cell-based
in vivo = assay: in vivo; design: species or system mice; conditions: mouse
Experimental: (§1) Initially, analytical methods for determination of the compounds had been developed that allowed to carry out all the PK experiments, sec FIG. 29. Here is a brief description of the experiment: (1) plasma spiked with tested compounds and 10 uL of Terfenadine or plasma samples (200 uL) added; (2) ACN (2 mL) added to precipitate protein and spin at 2,500 rpm; (3) evaporate supernatant to dryness; (4) add 200 uL of the diluting solvent: methanol (with 0.1% of trifluoroacetic acid): ammonium acetate (80/20); (5) vortex, spin, and use supernatant; (6) run LC/MS/MS on Sciex API 3000.
Pilot PK study of the compounds 37, 59, and 109 in mice was conducted using a cassette dosing: all the three analogs were formulated together in saline at 1.5 mg/mL, and administered to mice simultaneously orally at 25 mg/kg, peritoneally at 6 mg/kg, and intravenously. […] Obtained data are presented on FIGS. 30, 31, and 32 (tested compounds were studied under the NCI′ indexation NSC) and summarized in Table 19.

[2] = system: M. chelonae group (M. chelonae and M. abscessus); assay: Spectrum of activity MIC, rapid-grower, broth microdilution (NCCLS M24-A); type: cell-based; conditions: Mycobacteroides chelonae; three strains tested
[3] = Metabolism by human liver microsomes; type: in vitro ADME; conditions: after 40 min incubation
Text: (§2) Two of the groups contained oxidized metabolites. […] Based on the finding that SQ109 was metabolized rapidly by CYP, it is possible that its antimycobacterial activity may come from one of its metabolites. It is conceivable that SQ109 is a prodrug and requires activation by mycobacterial CYP. We speculate that when SQ109 is used in combination with rifampicin, the latter induces certain CYP activity within the Mycobacteria. Elevated CYP activity activates the SQ109 prodrug more efficiently, resulting in an apparent synergistic activity of the two drugs.

Staphylococci = assay: Spectrum of activity MIC (NCCLS); type: cell-based; conditions: all Staphylococci tested
Experimental: (§3) Compound 109 was tested against a representative panel of commonly encountered clinical microorganisms comprising opportunistic pathogens, target pathogens and normal human flora. The spectrum of activity of compound 109 was evaluated by performing antimicrobial susceptibility testing against a collection of aerobic and anaerobic bacteria, fungi, and mycobacteria. MICs for all organisms were established using the appropriate NCCLS (National Committee for Clinical Laboratory Standards) recommended standard methods and quality control strains.

Helicobacter pylori = assay: Spectrum of activity MIC (NCCLS); type: cell-based; conditions: all three strains tested
Experimental: as §3

Streptococcus pneumoniae = assay: Spectrum of activity MIC (NCCLS); type: cell-based
Experimental: as §3

Haemophilus influenzae = assay: Spectrum of activity MIC (NCCLS); type: cell-based; conditions: three isolates
Experimental: as §3

enterococci = assay: Spectrum of activity MIC (NCCLS); type: cell-based; conditions: all species of enterococci tested
Experimental: as §3

M. kansasii = assay: Spectrum of activity MIC, MOTT, agar proportion method; type: cell-based; conditions: Mycobacterium kansasii; three tested
Candida albicans = assay: Spectrum of activity MIC, broth microdilution NCCLS M27-A2 (yeast); type: cell-based
Experimental: Compound 109 was tested against a representative panel of commonly encountered clinical microorganisms comprising opportunistic pathogens, target pathogens and normal human flora. The spectrum of activity of compound 109 was evaluated by performing recommended broth microdilution methods. NCCLS M27-A2, 2003 for yeast and NCCLS M38-A, 2003 for mold.

[4] = type: in vitro ADME; conditions: 6 h
Experimental: as §1
Biostability studies of the compounds in plasma were carried out using concentrations 1 and 15 mg/ml. The compounds were incubated for 1, 2, 3 & 6 hr at 37° C. (Table 18).

M. tuberculosis H37Rv = assay: Standard chronic mouse model of tuberculosis, CFU in lung; type: in vivo, C57BL/6 female mice
[5] = target: T1, melanocortin MC4 receptor (Homo sapiens, UniProt P32245); assay: CEREP receptor binding, MC4; conditions: tested at 10 μM; read-out: inhibition of control specific binding
T1 construct: CEREP (contract testing)
T1 sequence (P32245 whole entry): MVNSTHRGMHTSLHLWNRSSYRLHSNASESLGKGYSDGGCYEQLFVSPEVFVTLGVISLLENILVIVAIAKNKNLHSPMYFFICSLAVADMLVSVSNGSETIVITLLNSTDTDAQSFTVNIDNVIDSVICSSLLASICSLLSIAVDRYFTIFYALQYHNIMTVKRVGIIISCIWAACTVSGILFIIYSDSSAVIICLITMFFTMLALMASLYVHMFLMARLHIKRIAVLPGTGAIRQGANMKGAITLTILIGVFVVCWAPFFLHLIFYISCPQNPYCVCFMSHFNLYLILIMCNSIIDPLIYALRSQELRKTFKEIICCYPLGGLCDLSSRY
Text: In vitro testing for safety pharmacology and early ADMET (Absorption, Distribution, Metabolism, Excretion, Toxicity) studies of compound 109 were contracted out to CEREP (15318 NE 95th Street, Redmond, Wash., 98052, USA www.cerep.com) under a service agreement and included evaluation of inhibitory binding to a panel of 27 standard receptors and three transporters (See FIG. 60 (Table 31) and FIG. 61 (Table 32)) which included: adenosine receptors (A1 and A2A), adrenergic receptors (alpha 1, alpha 2, beta 1), angiotensin II receptor (AT1), benzodiazapene receptor (BZD), bradykinin receptor (B2), cholecystokinin receptor (CCK1), dopamine receptors (D1, D2S), endothelin receptor (ETA), GABA receptor (GABA), glutamate receptor (NMDA), histamine receptor (H1 central), melanocortin receptor (MC4), muscarinic receptor (M, non-selective), neurokinin receptor (NK1), neuropeptide Y receptor (Y), nicotinic receptor (neuronal, alpha-BGTX-insensitive), opiate receptor (non-selective opiate), orphanin receptor (ORL1), phencyclidine receptor (PCP), serotonin receptor (5-HT), sigma receptor (sigma non-selective), steroid receptor (glucocorticoid receptor, GR), and NE, DA, and 5-HT transporters.
The specific ligand binding to the receptors is defined as the difference between the total binding and the nonspecific binding determined in the presence of an excess of unlabelled ligand.

wild type of M.tb = assay: MIC, secondary screening, wild type; type: cell-based, Mycobacterium tuberculosis; conditions: Mycobacterium tuberculosis, WT
M. smegmatis = assay: Spectrum (unpublished data); type: cell-based
human CYP2D6 = human CYP2D6 (Homo sapiens, UniProt P10635); assay: Metabolism by CYP2D6; type: in vitro ADME
Sequence of human CYP2D6 (P10635 whole entry): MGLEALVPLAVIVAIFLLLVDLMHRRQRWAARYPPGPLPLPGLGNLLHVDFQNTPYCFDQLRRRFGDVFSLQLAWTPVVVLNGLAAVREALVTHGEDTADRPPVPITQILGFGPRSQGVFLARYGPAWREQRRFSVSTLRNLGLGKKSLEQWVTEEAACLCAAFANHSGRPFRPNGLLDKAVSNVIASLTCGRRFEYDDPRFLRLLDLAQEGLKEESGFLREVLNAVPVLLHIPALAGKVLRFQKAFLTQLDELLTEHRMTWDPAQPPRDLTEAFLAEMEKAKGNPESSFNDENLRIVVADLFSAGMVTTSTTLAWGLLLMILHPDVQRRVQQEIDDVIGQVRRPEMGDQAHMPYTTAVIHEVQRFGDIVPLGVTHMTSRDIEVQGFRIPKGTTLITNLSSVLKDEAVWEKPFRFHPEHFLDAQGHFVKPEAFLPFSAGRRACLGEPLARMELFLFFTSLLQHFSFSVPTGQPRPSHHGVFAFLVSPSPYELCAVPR
Text: as §2

## CC(C)=CCC/C(C)=C/CNCCNC1C2CC3CC(C2)CC1C3 (stereo not drawn) [Compound 109, N-Geranyl-N′-(2-adamanthyl)ethane-1,2-diamine]
[1]
  growth inhibition: greater than 99%
[1]; 0.5 MIC SQ109 + rifampicin 4 mg/L
  x/y quotient: 0.64
[1]; 0.5 MIC SQ109 + rifampicin 8 mg/L
  x/y quotient: 0.48
[1]; 0.5 MIC SQ109 + rifampicin 12 mg/L
  x/y quotient: 0.40
[1]; 0.5 MIC SQ109 + rifampicin 16 mg/L
  x/y quotient: 0.35
In vivo; ip, 6 mg/kg
  AUC: 1100 ng·h/mL
  Cmax: 935 ng/mL
  Urine excretion (%): <0.01%
  bioavailability: 55%
  half-life: 4.4 h
In vivo; iv, 3 mg/kg
  AUC: 1010 ng·h/mL
  Cmax: 1190 ng/mL
  Urine excretion (%): .92%
  clearance: 54 mL/min/kg
  half-life: 5.5 h
In vivo; po, 25 mg/kg
  AUC: 655 ng·h/mL
  Cmax: 227 ng/mL
  bioavailability: 2.7%
[2]
  MIC: 16 µg/mL (≈ 48.4 µM)
[3]
  SQ109 remaining: 8%
Staphylococci
  MIC: 16 to 32 µg/mL (≈ 48.4 to 96.8 µM)
Helicobacter pylori
  MIC: 4 µg/mL (≈ 12.1 µM)
Streptococcus pneumoniae
  MIC: 4 to 8 µg/mL (≈ 12.1 to 24.2 µM)
Haemophilus influenzae
  MIC: 1 to 32 µg/mL (≈ 3.03 to 96.8 µM)
enterococci
  MIC: 16 to 64 µg/mL (≈ 48.4 to 194 µM)
M. kansasii
  MIC: 16 µg/mL (≈ 48.4 µM)
Candida albicans
  MIC: 4 to 8 µg/mL (≈ 12.1 to 24.2 µM)
[4]; dog
  Biostability in plasma (% ↓): 40% ↓
[4]; human
  Biostability in plasma (% ↓): 30% ↓
[4]; mouse
  Biostability in plasma (% ↓): stable
[4]; rat
  Biostability in plasma (% ↓): stable
M. tuberculosis H37Rv; INH+RIF+SQ109 at 25, 20 and 10 mg/kg, wk 4
  CFU in lung: 3.2 log10CFU
M. tuberculosis H37Rv; SQ109 by itself, 4 week therapy, control untreated 8.1
  CFU in lung: 6.6 log10CFU
M. tuberculosis H37Rv; combination SQ109+RIF at 10 and 20 mg/kg, 4 week therapy
  CFU in lung: 4.8 log10
[5]
  inhibition at 10 µM: 90%
Wild type of M.tb; value in brackets, read-out: MIC (or uM)
  MIC: 0.18 µM
Wild type of M.tb; EMB, RL241, Cmpd#59 as 2HCl salt, Cmpd#109 as 2CF3COOH salt, read-out: MIC
  MIC: 0.1 µg/mL
M. smegmatis
  activity: much less active
Human CYP2D6
  metabolism by CYP: metabolized
